Our source for the Solid state polarisation and Liquid state polarisation values is US20110008261A1, “METHOD TO PRODUCE HYPERPOLARISED AMINO ACIDS AND AMINOSULPHONIC ACIDS” (GE HEALTHCARE LIMITED, priority 2008, published 2011).

SMILES strings stand for the structures.

A short description of data set [1]: Solid state polarisation after DNP, by solid state 13C-NMR. It counts as physicochemical. As to conditions: 3.35 T, 93.90 GHz. As to the method: The level of polarisation may for instance be determined by solid state NMR measurements of the NMR nucleus in the frozen hyperpolarised sample. For instance, if the NMR active nucleus in the hyperpolarised sample is ^13C, a solid state ^13C-NMR measurement is carried out. The solid state ^13C-NMR measurement preferably consists of a simple pulse-acquire NMR sequence using a low flip angle. The signal intensity of the hyperpolarised sample in the ^13C-NMR spectrum is compared with signal intensity of the sample in a ^13C-NMR spectrum acquired before the DNP polarisation process. The level of polarisation is then calculated from the ratio of the signal intensities of before and after polarisation.
The probe is inserted into the probe-retaining container, submerged in the liquid helium and irradiated with microwaves, preferably at a frequency of about 94 GHz at 200 mW. The level of polarisation may for instance be monitored by solid state NMR measurements of the NMR active nucleus in the frozen solution comprising the hyperpolarised sample. For instance, if the NMR active nucleus in the hyperpolarised sample is ^13C, a solid state ^13C-NMR measurement is carried out. The solid state ^13C-NMR measurement preferably consists of a simple pulse-acquire NMR sequence using a low flip angle. The signal intensity of the hyperpolarised sample in the ^13C-NMR spectrum is compared with signal intensity of the sample in a ^13C-NMR spectrum acquired before the DNP polarisation process. The level of polarisation is then calculated from the ratio of the signal intensities of before and after polarisation.
32.5 mg (0.258 mmol) of the ^13C1-alanine hydrochloride obtained in Example 1a was added to 42 mg of a stock solution in a micro test tube. The stock solution had been prepared by dissolving the DNP agent (trityl radical) tris(8-carboxy-2,2,6,6-(tetra(hydroxyethyl)-benzo-[1,2-4,5′]-bis-(1,3)-dithiole-4-yl)-methyl sodium salt which had been synthesised according to Example 7 of WO-A1-98/39277 and the paramagnetic metal ion (Gd-chelate of 1,3,5-tris-(N-(DO3A-acetamido)-N-methyl-4-amino-2-methylphenyl)-[1,3,5]triazinane-2,4,6-trione) which had been synthesised according to Example 4 of WO-A-2007/064226 in glycerol in such a way that a glycerol solution being 26 mM in trityl radical and 0.52 mM in Gd-chelate had been obtained. The resulting composition was sonicated to dissolve the ^13C1-alanine hydrochloride and produce a clear solution. […] The frozen solution was polarised under DNP conditions at 1.2 K in a 3.35 T magnetic field under irradiation with microwave (93.90 GHz). Polarisation was followed by solid state ^13C-NMR and the solid state polarisation was determined to be 40%.
^13C1-glutamine (45.5 mg, 0.30 mmol, Cambridge Isotopes) was weighted into a micro test tube and dissolved in 23.5 μl water and 25 μl aqueous NaOH (12 M). The mixture was sonicated and gently heated to produce a clear solution. To the solution was added 5.7 mg of an aqueous solution of tris(8-carboxy-2,2,6,6-(tetra(hydroxyethyl)-benzo-[1,2-4,5′]-bis-(1,3)-dithiole-4-yl)-methyl sodium salt (trityl radical; 139 μmol/g solution) and 2.1 mg of an aqueous solution of the Gd-chelate of 1,3,5-tris-(N-(DO3A-acetamido)-N-methyl-4-amino-2-methylphenyl)-[1,3,5]triazinane-2,4,6-trione) (paramagnetic metal ion; 14.5 μmol/g solution) The resulting composition was sonicated and gently heated to produce a clear solution. […] The sample cup was removed from the liquid nitrogen, 25 μl aqueous HCl (12 M) were added to the sample cup. […] The frozen solution was polarised under DNP conditions at 1.2 K in a 3.35 T magnetic field under irradiation with microwave (93.90 GHz). Polarisation was followed by solid state ^13C-NMR and the solid state polarisation was determined to be 35%.

Data set [2] in a line: Liquid state polarisation after liquefaction and neutralization, by liquid state 13C-NMR at 400 MHz. The format is physicochemical. As to the method:
In a similar way, the level of polarisation for liquid hyperpolarised samples may be determined by liquid state NMR measurements of the NMR active nucleus in the liquid hyperpolarised sample. Again the signal intensity of the liquid hyperpolarised sample is compared with the signal intensity of the liquid sample before polarisation. The level of polarisation is then calculated from the ratio of the signal intensities of before and after polarisation.
After 150 minutes of dynamic nuclear polarisation, the obtained frozen polarised solution was dissolved in a dissolution medium containing 6 ml of a phosphate buffer (20 mM, pH 6.8, 100 mg/l EDTA), aqueous NaOH (27 μl 12 M solution, 1 eq) and 30 mg NaCl.
After 120 minutes of dynamic nuclear polarisation, the obtained frozen polarised solution was dissolved in a dissolution medium containing 6 ml phosphate buffer (40 mM, pH 7, 100 mg/l EDTA, 0.9% NaCl).

Setting [3] is: basic preparation according to Example 2, DNP at 1.2 K.
Setting [4] is: basic preparation according to Example 2, after liquefaction and neutralization.
The mark [5] stands for this setting: acidic preparation according to Example 1, DNP at 1.2 K.
Where [6] appears, read: acidic preparation according to Example 1, after liquefaction and neutralization.

For `NC(=O)CCC(N)[13C](=O)[O-].[Na+]` (stereo not drawn) [Sodium ^13C1-2-amino-4-carbamoyl-butanoate], in data set [1] (Example 2a, 4 M aqueous, 11 mM trityl radical, 0.4 mM Gd3+, 1.2 K), the Solid state polarisation was determined as 35%.
Turning to `C[C@H](N)[13C](=O)O.Cl` [^13C1-alanine hydrochloride, ^13C1-alaninium chloride], the Solid state polarisation in data set [1] (Example 1b, 4 M in glycerol, 17 mM trityl radical, 0.9 mM Gd3+, 1.2 K) is 40%.
In turn, `CC(N)[13C](=O)O` (stereo not drawn) [^13C1-alanine] registered a Solid state polarisation in data set [1] (setting [3]) of 18%. Also, the Liquid state polarisation in data set [2] (Example 1c, after 150 minutes DNP, dissolved in phosphate buffer/NaOH, final pH 6.8, 400 MHz) was 35%; in data set [2] (setting [4]), 16%.
`N[C@@H](CS)[13C](=O)O` [^13C1-cysteine] displayed a Solid state polarisation in data set [1] (setting [5]) of 25%. The Liquid state polarisation in data set [2] (setting [6]) came out at 17%.
For `NC(=O)CC[C@H](N)[13C](=O)O` [^13C1-glutamine], the Liquid state polarisation in data set [2] (Example 2b, after 120 minutes DNP, dissolved in phosphate buffer, final pH 7, 400 MHz) is 30%; in data set [2] (setting [6]), 6%.
Take `NC[13C](=O)O` [^13C1-glycine]: the Solid state polarisation in data set [1] (setting [5]) is on record as 16%; in data set [1] (setting [3]), 19%. The Liquid state polarisation in data set [2] (setting [6]) came to 16%; in data set [2] (setting [4]), 18%.
In data set [1] (setting [3]), `CC(C)C[C@H](N)[13C](=O)O` [^13C1-leucine] registered a Solid state polarisation of 35%. Also, the Liquid state polarisation in data set [2] (setting [4]) was found to be 21%.
In turn, `CSCCC(N)[13C](=O)O` (stereo not drawn) [^13C1-methionine] had a Solid state polarisation in data set [1] (setting [5]) of 41%. In data set [2] (setting [6]), this molecule returned a Liquid state polarisation of 26%.
For `O=[13C](O)C1CCCN1` (stereo not drawn) [^13C1-proline], the Liquid state polarisation in data set [2] (setting [6]) is listed as 16%.
